The text below walks through data of PubChem BioAssay AID504556 (Southern Research Specialized Biocontainment Screening …, 2011).

The nature of assay [1]: growth inhibition of Mycobacterium tuberculosis, dose response, 7H9 medium, purified and synthesized compounds, set 2 (AID 504556). Particulars: Mycobacterium tuberculosis H37Rv growth in 7H9 medium; at 25 µM (top of the series).
Assay [2] concerns Mycobacterium tuberculosis H37Rv growth in 7H9 medium. The assay is described as above. The settings on record: for IC90: measured here: M. tuberculosis growth IC90.

Activity calls are given as the source filed them. How the calls were made is not given here. Residues, ends and D or L forms follow the SMILES beside them. *: point of attachment. Cbz = O=C(OCc1ccccc1)* Bounds are passed on as bounds.

`COC(=O)c1ccc(CNc2c(N3CCCC3)c(=O)c2=O)cc1`: the growth inhibition in assay [1] was 0.86% (inactive). Usually IC50 stands for the concentration at which inhibition is half-maximal. One may read the IC90 as the concentration needed for an effect of 90%. Read a high IC90 as a need for much substance. In the case of `CC1CCN(C(=O)C2CCN(c3nnc(-n4cccc4)s3)CC2)CC1`, in assay [2], the concentration for half-maximal inhibition (IC50) was 890 nM and the IC90 stood at 2230 nM. In the same order, the values of `Cc1ccc2c(c1)c(C1=c3ccccc3=NC1=O)c(O)n2C` are 250 nM and 1720 nM. In the same order, the values of `COc1cc(NC(=O)C/C(C)=N/NC(=O)c2ccccn2)c(OC)cc1Cl` are 990 nM and 3040 nM. For the molecule `CCC(C)Nc1ccc(NC(C)CC)cc1` (stereo not given), in assay [2], the IC50 is 320 nM and the IC90 came to 590 nM. For the molecule `CCOC(=O)c1ccc(NC(=O)Cn2ncc(Cl)c(Cl)c2=O)cc1`, in assay [2], the IC50 is 70 nM and the IC90 was determined as 480 nM. The like results for `O=C(/C=C/c1ccccc1)N1CCN(CCN2C(=O)c3cccc4cccc(c34)C2=O)CC1` were, in that order, 1290 nM and 3470 nM.

Consider `CCOC(=O)COc1ccc(/C=C2\NC(=S)N(CC)C2=O)cc1`, for which, in assay [2], the IC50 is 820 nM and the IC90 was found to be 6190 nM. `Oc1ccccc1/C=N/Nc1ccnc(SCc2ccccc2)n1`: the growth inhibition in assay [1] was 19.3% (inactive).

Take `Cc1ccc(C(=O)N/N=C(/CC(=O)c2cccs2)C(F)(F)F)cc1`: in assay [2], the IC50 is 540 nM and the IC90 came out at 1050 nM. In the same order, the values of `Nc1c(C(=O)NC2CCCCC2)nsc1C(=O)OCC(=O)NC1CCCCC1` are 380 nM and 2090 nM.

As to `CCc1ccc(/C=C2/C(=O)N(C)C(=S)N2CC(=O)OC)s1`, in assay [2], the IC50 is 190 nM and the IC90 came out at 3110 nM.

For the molecule `CCOC(=O)CNC(=O)[C@H](Cc1ccccc1)NC(=O)OCc1ccccc1` (Cbz-Phe-Gly-OEt), in assay [2], the IC50 is 610 nM and the IC90 worked out at 1220 nM.

Take `COC(=O)C(C)Oc1ccc(-c2nccc(-c3ccccn3)n2)cc1` (stereo not given): in assay [2], the IC50 was 1170 nM and the IC90 came out at 2590 nM. For the molecule `CCOC1OC(=O)C(Cl)=C1Nc1ccccc1C` (stereo not given), in assay [2], the IC50 is 2020 nM and the IC90 stood at 9040 nM. As for `CNc1nc(SCc2ccccc2Cl)nc2c1CCCC2`, in assay [2], the concentration for half-maximal inhibition (IC50) is 680 nM and the IC90 came to 1910 nM. Turning to `COC(=O)C(Nc1nc(SCC(=O)NC2CCCCC2)nc2ccccc12)c1ccccc1` (stereo not given), in assay [1], the growth inhibition is 2.12% (inactive).

With `Cc1nc(SCC(=O)NC2CCCCC2)[nH]c(=O)c1C`, in assay [2], the IC50 was 40 nM and the IC90 turned out to be 1030 nM. The like results for `O=C(/C=C\c1cccs1)N1CCN(Cc2ccc3c(c2)OCO3)CC1` were, in that order, 330 nM and 1970 nM. As to `COC(=O)CCc1nc2c(C#N)c(-c3ccc(Cl)cc3)ccn2n1`, in assay [2], the IC50 was 1110 nM and the IC90 turned out to be 2460 nM. Consider `c1ccc(/N=C2\N=C(Nc3ccccn3)c3ccccc32)nc1`, for which, in assay [2], the 50% inhibitory concentration (IC50) was under 10 nM and the IC90 was under 10 nM. As to `Cc1ccc2ccc3ccc(C)nc3c2n1`, in assay [2], the IC50 is 50 nM and the IC90 came out at 230 nM. As to `CC[N+](C)(CC)CCCCOc1ccc2c(c1)C(=O)c1cc(OCCCC[N+](C)(CC)CC)ccc1-2`, in assay [2], the IC50 was 770 nM and the IC90 came out at 1220 nM.

On to `O=C(CSc1nc2ccccc2c(=O)[nH]1)NCc1ccc(Cl)cc1`, for which, in assay [2], the half-maximal inhibitory concentration (IC50) is 160 nM and the IC90 worked out at 720 nM. In the same order, the values of `Cc1cccc(-c2oc3ccc(-c4ccc5c(c4)OCO5)cc3c2C#Cc2cncn2C)c1` are 2360 nM and 3220 nM. In the same order, the values of `Cc1nn2c(NCc3ccccn3)cc(C(C)C)nc2c1-c1ccccc1` are 510 nM and 820 nM. In the case of `COC(=O)C1CC(=O)N(c2ccc(OCc3ccccc3Cl)cc2)C1` (stereo not given), in assay [2], the half-inhibitory concentration (IC50) was 220 nM and the IC90 is 3840 nM.

Take `Cc1ccc(NC(=O)C2C3/C=C\CCCCC32)cc1C` (stereo not given): in assay [2], the half-inhibitory concentration (IC50) was 1490 nM and the IC90 came to 4010 nM. Take `CCOC(=O)COn1c2c(c3c4no[n+]([O-])c4ccc31)CCCC2`: in assay [2], the IC50 is 1730 nM and the IC90 is 3680 nM.

For `COC(=O)c1cc(=O)n(-c2ccc(F)cc2)c(=Nc2ccc(F)cc2)s1`, in assay [2], the IC50 was 150 nM and the IC90 turned out to be 1460 nM. The like results for `S=c1nc[nH]c2nc[nH]c12` were, in that order, 950 nM and 1570 nM. With `Cc1cccc(/C=C/C(=O)c2ccc([N+](=O)[O-])o2)c1`, in assay [2], the IC50 was under 10 nM and the IC90 was under 10 nM. Consider `Cc1cc(Br)ccc1NC(=O)c1cnc(N2CCN(c3ccccn3)CC2)c2ccccc12`, for which, in assay [2], the IC50 was 180 nM and the IC90 was 1470 nM.

Turning to `O=C1C(Br)=Cc2cccc3cccc1c23`, in assay [2], the IC50 is 20 nM and the concentration for an effect of 90% (IC90) worked out at 1080 nM. In the same order, the values of `O=C(CSc1nc2ccccc2c(=O)[nH]1)NC1CCCCC1` are under 10 nM and under 10 nM.

In the case of `CC(=NCc1ccc2c(c1)OCO2)C1=C(O)c2ccccc2C1=O`, in assay [2], the 50% inhibitory concentration (IC50) was 400 nM and the IC90 worked out at 6040 nM. The like results for `CCOC(=O)C(C)Sc1ncnc2c1nnn2-c1ccc(F)cc1` (stereo not given) were, in that order, 70 nM and 3420 nM. The like results for `O=C(NCC(c1cccs1)N1CCOCC1)c1cc([N+](=O)[O-])cc([N+](=O)[O-])c1` (stereo not given) were, in that order, 90 nM and 190 nM.

Consider `CC(C)NC(=O)c1sc(=S)n2c1[nH]c(=O)c1ccc(C(=O)NCCc3ccc(Cl)cc3)cc12`, for which, in assay [2], the IC50 was 80 nM and the 90% effect concentration (IC90) is 230 nM.
